Measurements from patent publication US20240300980A1, “HETEROCYCLIC COMPOUNDS AS KRAS INHIBITOR, AND PREPARATION THEREFOR AND USE THEREOF IN TREATMENT” (SHANGHAI KECHOW PHARMA, INC., priority 2021, published 2024).
Like-named read-outs stand apart in the source and are kept apart here.

Test system: AGS cells (KRAS^G12D)
Experiment: Detection of cell proliferation in vitro by MTT/MTS method (cell activity experiment)
Assay type: cell-based
Conditions: AGS cells, MTT/MTS, 3 days of drug treatment, read-out: AGS IC50
Method in brief: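 KRAS G12D AGS cells seeded at 1000 per well, compound added 24 h later, 0.5% final DMSO. Viability read after 3 days of treatment by MTT (solubilised in DMSO) or MTS, 4 h, absorbance 490 nm. IC50 from dose–response curves versus DMSO control.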

IC50	SMILES	IC50 (Homo sapiens, AGS, 72 h)
–	C#Cc1c(F)ccc2cc(O)cc(-c3ncc4c(N5CC6CCC(C5)[S+]6[O-])nc(OC[C@@]56CCCN5C[C@H](F)C6)nc4c3F)c12 (stereo partly drawn) [Example 22, (1R,5S,8R)-3-(7-(8-ethynyl-7-fluoro-3-hydroxynaphthalen-1-yl)-8-fluoro-2-(((2R,7aS)-2-fluorotetrahydro-1H-pyrrolizin-7a(5H)-yl)methoxy)pyrido [4,3-d]pyrimidin-4-yl)-8-thia-3-azabicyclo [3.2.1]octane 8-oxide]	3950 nM
–	CC1CCCc2cc(O)cc(-c3cc4nc(OC[C@@]56CCCN5C[C@H](F)C6)nc(N5C[C@H]6CC[C@@H](C5)N6)c4c4occc34)c21 (stereo partly drawn) [Example 387, 4-(9-((1R,5S)-3,8-diazabicyclo[3.2.1]octan-3-yl)-7-(((2R,7aS)-2-fluorotetrahydro-1H-pyrrolizin-7a(5H)-yl)methoxy)furo[2,3-f]quinazolin-4-yl)-5-methyl-5,6,7,8-tetrahydronaphthalen-2-ol]	481 nM
–	C#Cc1cc2c(N3C[C@H]4CC[C@@H](C3)N4)nc(OC[C@@]34CCCN3C[C@H](F)C4)nc2c(F)c1-c1cc(O)cc2c1C(CC)C1CC21 (stereo partly drawn) [Example 372, 5-(4-((1R,5S)-3,8-diazabicyclo[3.2.1]octan-3-yl)-6-ethynyl-8-fluoro-2-(((2R,7aS)-2-fluorotetrahydro-1H-pyrrolizin-7a(5H)-yl)methoxy)quinazolin-7-yl)-6-ethyl-1,1a,6,6a-tetrahydrocyclopropa[a]inden-3-ol]	65 nM
–	CCc1c(F)ccc2cc(O)cc(-c3ccc4c(N5C[C@H]6CC[C@@H](C5)N6)nc(OC[C@@]56CCCN5C[C@H](F)C6)nc4c3)c12 [Example 149, 4-(4-((1R,5S)-3,8-diazabicyclo[3.2.1]octan-3-yl)-2-(((2R, 7aS)-2-fluorotetrahydro-1H-pyrrolizin-7a(5H)-yl)methoxy)quinazolin-7-yl)-5-ethyl-6-fluoronaphthalen-2-ol]	320 nM
–	C#Cc1c(F)ccc2cc(O)cc(-c3ncc4c(N5C[C@H]6CC[C@@H](C5)S6(=O)=O)nc(OC[C@@]56CCCN5C[C@H](F)C6)nc4c3F)c12 [Example 23, (1R,5S)-3-(7-(8-ethynyl-7-fluoro-3-hydroxynaphthalen-1-yl)-8-fluoro-2-(((2R, 7aS)-2-fluorotetrahydro-1H-pyrrolizin-7a(5H)-yl)methoxy)pyrido[4,3-d]pyrimidin-4-yl)-8-thia-3-azabicyclo[3.2.1] octane 8,8-dioxide]	6950 nM
–	CCC1CCCc2cc(O)cc(-c3c(Cl)cc4c(N5C[C@H]6CC[C@@H](C5)N6)nc(OC[C@@]56CCCN5C[C@H](F)C6)nc4c3F)c21 (stereo partly drawn) [Example 303, 4-(4-((1R,5S)-3,8-diazabicyclo[3.2.1]octan-3-yl)-6-chloro-8-fluoro-2-(((2R,7aS)-2-fluorotetrahydro-1H-pyrrolizin-7a(5H)-yl)methoxy)quinazolin-7-yl)-5-ethyl-5,6,7,8-tetrahydronaphthalen-2-ol]	22 nM
> 2500 nM	CCc1c(F)ccc2cc(O)cc(-c3ccc4c(N5C[C@H]6CC[C@@H](C5)[C@@H]6F)nc(OC[C@@]56CCCN5C[C@H](F)C6)nc4c3F)c12 [Example 124, 5-ethyl-6-fluoro-4-(8-fluoro-4-((1R,5S, 8R)-8-fluoro-3-azabicyclo[3.2.1]octan-3-yl)-2-(((2R,7aS)-2-fluorotetrahydro-1H-pyrrolizin-7a(5H)-yl)methoxy)quinazolin-7-yl)naphthalen-2-ol]	–
–	CCc1coc2cc(O)cc(-c3ccc4c(N5C[C@H]6CC[C@@H](C5)N6)nc(OC[C@@]56CCCN5C[C@H](F)C6)nc4c3F)c12 [Example 293, 4-(4-((1R,5S)-3,8-diazabicyclo[3.2.1]octan-3-yl)-8-fluoro-2-(((2R,7aS)-2-fluorotetrahydro-1H-pyrrolizin-7a(5H)-yl)methoxy)quinazolin-7-yl)-3-ethylbenzofuran-6-ol]	121 nM
> 2500 nM	C#Cc1cccc2cc(O)cc(-c3ccc4c(N5C[C@H]6CC[C@@H](C5)[C@@H]6F)nc(OC[C@@]56CCCN5C[C@H](F)C6)nc4c3F)c12 [Example 125, 5-ethynyl-4-(8-fluoro-4-((1R,5S,8R)-8-fluoro-3-azabicyclo [3.2.1]octan-3-yl)-2-(((2R,7aS)-2-fluorotetrahydro-1H-pyrrolizin-7a(5H)-yl)methoxy)quinazolin-7-yl)naphthalen-2-ol]	–
–	CC1CCCc2cc(O)cc(-c3c4c(c5c(N6C[C@H]7CC[C@@H](C6)N7)nc(OC[C@@]67CCCN6C[C@H](F)C7)nc5c3F)OCO4)c21 (stereo partly drawn) [Example 391, 4-(9-((1R,5S)-3,8-diazabicyclo[3.2.1]octan-3-yl)-5-fluoro-7-(((2R,7aS)-2-fluorotetrahydro-1H-pyrrolizin-7a(5H)-yl)methoxy)-[1,3]dioxolo[4,5-f]quinazolin-4-yl)-5-methyl-5,6,7,8-tetrahydronaphthalen-2-ol]	100 nM
–	Oc1cc(-c2ccc3c(N4C[C@H]5CC[C@@H](C4)N5)nc(OC[C@@]45CCCN4C[C@H](F)C5)nc3c2F)c2c(F)c(F)ccc2c1 [Example 94, 4-(4-((1R,5S)-3,8-diazabicyclo[3.2.1]octan-3-yl)-8-fluoro-2-(((2R,7aS)-2-fluorotetrahydro-1H-pyrrolizin-7a(5H)-yl)methoxy)quinazolin-7-yl)-5,6-difluoronaphthalen-2-ol]	1.5 nM
–	C#Cc1c(F)ccc2cc(O)cc(-c3ncc4c(C56CCN(CC5)CC6)nc(OC[C@@]56CCCN5C[C@H](F)C6)nc4c3F)c12 [Example 71, 5-ethynyl-6-fluoro-4-(8-fluoro-2-(((2R, 7aS)-2-fluorotetrahydro-1H-pyrrolizin-7a(5H)-yl)methoxy)-4-(quinuclidin-4-yl)pyrido[4,3-d]pyrimidin-7-yl) naphthalen-2-ol]	> 2500 nM
–	N#Cc1c(OC[C@@]23CCCN2C[C@H](F)C3)nc2c(F)c(-c3cc(O)cc4cccc(F)c34)ccc2c1N1C[C@H]2CC[C@@H](C1)N2 [Example 180, 4-((1R,5S)-3,8-diazabicyclo[3.2.1]octan-3-yl)-8-fluoro-7-(8-fluoro-3-hydroxynaphthalen-1-yl)-2-(((2R,7aS)-2-fluorotetrahydro-1H-pyrrolizin-7a(5H)-yl)methoxy)quinoline-3-carbonitrile]	556 nM
–	Oc1cc(-c2cnc3c(N4C[C@H]5CC[C@@H](C4)N5)nc(OC[C@@]45CCCN4C[C@H](F)C5)nc3c2)c2c(F)c(F)ccc2c1 [Example 199, 4-(4-((1R,5S)-3,8-diazabicyclo[3.2.1]octan-3-yl)-2-(((2R,7aS)-2-fluorotetrahydro-1H-pyrrolizin-7a(5H)-yl)methoxy)pyrido[3,2-d]pyrimidin-7-yl)-5,6-difluoronaphthalen-2-ol]	> 2500 nM
–	CCc1c(F)ccc2cc(O)cc(-c3ccc4c(N5C[C@H]6CC[C@@H](C5)S6)nc(OC[C@@]56CCCN5C[C@H](F)C6)nc4c3F)c12 [Example 161, 4-(4-((1R,5S)-8-thia-3-azabicyclo[3.2.1]octan-3-yl)-8-fluoro-2-(((2R,7aS)-2-fluorotetrahydro-1H-pyrrolizin-7a(5H)-yl)methoxy)quinazolin-7-yl)-5-ethyl-6-fluoronaphthalen-2-ol]	236 nM
–	C#Cc1cccc2cc(O)cc(N3CCc4c(nc(OC[C@@]56CCCN5C[C@H](F)C6)nc4N4C[C@H]5CC[C@@H](C4)N5)C3)c12 [Example 206, 4-(4-((1R,5S)-3,8-diazabicyclo[3.2.1]octan-3-yl)-2-(((2R,7aS)-2-fluorotetrahydro-1H-pyrrolizin-7a(5H)-yl)methoxy)-5,8-dihydropyrido[3,4-d]pyrimidin-7(6H)-yl)-5-ethynylnaphthalen-2-ol]	20 nM
–	C#Cc1c(F)ccc2cc(O)cc(-c3ncc4c(N5C[C@H]6CC[C@@H](C5)N6)nc(OCC56CC5CCN6C)nc4c3F)c12 (stereo partly drawn) [Example 77, 4-(4-((1R,5S)-3,8-diazabicyclo[3.2.1]octan-3-yl)-8-fluoro-2-((2-methyl-2-azabicyclo[3.1.0]hexan-1-yl)methoxy)pyrido [4,3-d]pyrimidin-7-yl)-5-ethynyl-6-fluoronaphthalen-2-ol]	> 2500 nM
–	CCc1c(F)ccc2cc(O)cc(-c3ccc4c(N5C[C@H]6CC[C@@H](C5)N6)nc(OC[C@]56CCCN5[C@@H](COC(=O)N(C)C)CC6)nc4c3)c12 [Example 154, ((3R,7aR)-7a-(((4-((1R, 5S)-3,8-diazabicyclo [3.2.1]octan-3-yl)-7-(8-ethyl-7-fluoro-3-hydroxynaphthalen-1-yl)quinazolin-2-yl)oxy)methyl)hexahydro-1H-pyrrolizin-3-yl) methyl dimethylcarbamate]	195 nM
–	CCc1coc2cc(O)cc(-c3ncc4c(N5C[C@H]6CC[C@@H](C5)N6)nc(OC[C@@]56CCCN5C[C@H](F)C6)nc4c3F)c12 [Example 244, 4-(4-((1R,5S)-3,8-diazabicyclo[3.2.1]octan-3-yl)-8-fluoro-2-(((2R,7aS)-2-fluorotetrahydro-1H-pyrrolizin-7a(5H)-yl)methoxy)pyrido[4,3-d]pyrimidin-7-yl)-3-ethylbenzofuran-6-ol]	59 nM
–	C#Cc1c(F)ccc2cc(O)cc(-c3ccc4c(N5C[C@H]6CC[C@@H](C5)S6)nc(OC[C@@]56CCCN5C[C@H](F)C6)nc4c3F)c12 [Example 158, 4-(4-((1R,5S)-8-thia-3-azabicyclo[3.2.1]octan-3-yl)-8-fluoro-2-(((2R,7aS)-2-fluorotetrahydro-1H-pyrrolizin-7a(5H)-yl)methoxy)quinazolin-7-yl)-5-ethynyl-6-fluoronaphthalen-2-ol]	235 nM
–	Oc1cc(-c2ncc3c(N4C[C@H]5CC[C@@H](C4)C5(F)F)nc(OC[C@@]45CCCN4C[C@H](F)C5)nc3c2F)c2c(F)c(F)ccc2c1 [Example 33, 4-(4-((1R,5S)-8,8-difluoro-3-azabicyclo [3.2.1]octan-3-yl)-8-fluoro-2-(((2R,7aS)-2-fluorotetrahydro-1H-pyrrolizin-7a(5H)-yl)methoxy)pyrido[4,3-d]pyrimidin-7-yl)-5,6-difluoronaphthalen-2-ol]	> 2500 nM

SMILES	IC50	IC50 (Homo sapiens, AGS, 72 h)
CC1CCCc2cc(O)cc(-c3ccc4c(N5C[C@H]6CC[C@@H](C5)N6)nc(OC[C@@]56CCCN5C[C@H](F)C6)nc4c3F)c21 (single isomer, unassigned) [Example 288]	7.2 nM	–
